# Reference: PubChem BioAssay (NCI)
#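 These data come from cells grown in 96-well plates and exposed to compound for 48 hours at five concentrations. GI50 = concentration required for 50% inhibition of growth. TGI: concentration producing complete growth inhibition.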
# Key:
# Assay in all cases: NCI tumour cell line growth inhibition, 48 h
# [1] = system: OVCAR-8 ovarian
# [2] = system: HCT-116 colon
# [3] = system: HCT-15 colon
# [4] = system: SK-MEL-2 melanoma
# [5] = system: T-47D breast
# [6] = system: K-562 leukemia
# [7] = system: IGROV1 ovarian
# [8] = system: HOP-62 NSCLC
# [9] = system: HS 578T breast
# [10] = system: OVCAR-4 ovarian
# [11] = system: PC-3 prostate
# [12] = system: SW-620 colon
# [13] = system: SK-MEL-5 melanoma
# [14] = system: UO-31 renal
# [15] = system: HL-60(TB) leukemia
# [16] = system: SNB-19 CNS
# [17] = system: A549 NSCLC
# [18] = system: SF-295 CNS
# [19] = system: HOP-92 NSCLC
# [20] = system: HCC-2998 colon
# [21] = system: NCI-H522 lung
# [22] = system: HT29 colon
# [23] = system: BT-549 breast
# [24] = system: CAKI-1 renal
# [25] = system: UACC-257 melanoma
# [26] = system: RXF 393 renal
# [27] = system: CCRF-CEM leukemia
# [28] = system: 786-0 renal
# [29] = system: OVCAR-5 ovarian
# [30] = system: OVCAR-3 ovarian
# [31] = system: ACHN renal
# [32] = system: SK-OV-3 ovarian
# [33] = system: DU-145 prostate
# [34] = system: U251 CNS
# [35] = system: NCI-H23 lung
# [36] = system: MCF7 breast
# [37] = system: NCI-H460 lung
# [38] = system: UACC-62 melanoma
# [39] = system: RPMI-8226 leukemia
# [40] = system: NCI/ADR-RES ovarian
# [41] = system: COLO 205 colon
# [42] = system: MDA-MB-231 breast
# [43] = system: SF-268 CNS
# [44] = system: TK-10 renal
# [45] = system: SF-539 CNS
# [46] = system: LOX IMVI melanoma
# [47] = system: SNB-75 CNS
# [48] = system: A498 renal
# [49] = system: NCI-H226 lung
# [50] = system: SR leukemia
# [51] = system: M14 melanoma
# [52] = system: SK-MEL-28 melanoma
# [53] = system: KM12 colon
# [54] = system: EKVX NSCLC
# [55] = system: MALME-3M melanoma
# [56] = system: SN12C renal
# [57] = system: MOLT-4 leukemia
# [58] = system: MDA-MB-435
smiles,measurement,setting,value
COc1cccc2c1O/C(=C\c1ccc([N+](=O)[O-])s1)C2=O,GI50,[1],2540 nM
same,TGI,[1],> 24.9 µM
same,GI50,[2],2040 nM
same,TGI,[2],> 100 µM
same,GI50,[3],0.474 µM
same,TGI,[3],2340 nM
same,GI50,[4],1760 nM
same,TGI,[4],3.92 µM
same,GI50,[5],1480 nM
same,TGI,[5],7.16 µM
same,GI50,[6],349 nM
same,TGI,[6],3.05 µM
same,GI50,[7],1910 nM
same,TGI,[7],5 µM
same,TGI,[8],> 100 µM
same,GI50,[9],2990 nM
same,TGI,[9],> 32.1 µM
same,TGI,[10],> 100 µM
same,GI50,[11],1700 nM
same,TGI,[11],> 21.3 µM
same,GI50,[12],460 nM
same,TGI,[12],1750 nM
same,GI50,[13],2.49 µM
same,TGI,[13],> 100 µM
same,GI50,[14],1.08 µM
same,TGI,[14],3.9 µM
same,GI50,[15],2530 nM
same,TGI,[15],> 100 µM
same,GI50,[16],4.21 µM
same,TGI,[16],> 100 µM
same,GI50,[17],3.29 µM
same,TGI,[17],> 100 µM
same,GI50,[18],> 90.5 µM
same,TGI,[18],> 100 µM
same,GI50,[19],1.18 µM
same,TGI,[19],3.42 µM
same,GI50,[20],4 µM
same,TGI,[20],> 100 µM
same,GI50,[21],0.241 µM
same,TGI,[21],766 nM
same,GI50,[22],10.3 µM
same,TGI,[22],21.9 µM
same,GI50,[23],1680 nM
same,TGI,[23],3.27 µM
same,GI50,[24],> 100 µM
same,TGI,[24],> 100 µM
same,GI50,[25],> 100 µM
same,TGI,[25],> 100 µM
same,GI50,[26],2.6 µM
same,TGI,[26],> 25.3 µM
same,GI50,[27],1250 nM
same,TGI,[27],> 23.4 µM
same,GI50,[28],> 20.6 µM
same,TGI,[28],> 100 µM
same,GI50,[29],> 100 µM
same,TGI,[29],> 100 µM
same,GI50,[30],1940 nM
same,TGI,[30],4.53 µM
same,GI50,[31],2790 nM
same,TGI,[31],> 100 µM
same,GI50,[32],> 83.9 µM
same,TGI,[32],> 100 µM
same,GI50,[33],> 23.9 µM
same,TGI,[33],> 100 µM
same,GI50,[34],2420 nM
same,TGI,[34],> 20.3 µM
same,GI50,[35],3.15 µM
same,TGI,[35],> 100 µM
same,GI50,[36],2.04 µM
same,TGI,[36],> 100 µM
same,GI50,[37],4.34 µM
same,TGI,[37],> 100 µM
same,GI50,[38],1360 nM
same,TGI,[38],3.23 µM
same,GI50,[39],1700 nM
same,TGI,[39],> 20.6 µM
same,GI50,[40],3.92 µM
same,TGI,[40],> 100 µM
same,GI50,[41],5.15 µM
same,TGI,[41],> 100 µM
same,GI50,[42],1250 nM
same,TGI,[42],2920 nM
same,GI50,[43],2020 nM
same,TGI,[43],4.72 µM
same,GI50,[44],3.16 µM
same,TGI,[44],8.83 µM
same,GI50,[45],3.08 µM
same,TGI,[45],> 100 µM
same,GI50,[46],3.15 µM
same,TGI,[46],> 100 µM
same,GI50,[47],2.33 µM
same,TGI,[47],> 32.5 µM
same,GI50,[48],> 100 µM
same,TGI,[48],> 100 µM
same,GI50,[49],> 80.6 µM
same,TGI,[49],> 100 µM
same,GI50,[50],279 nM
same,TGI,[50],2930 nM
same,GI50,[51],3.06 µM
same,TGI,[51],> 100 µM
C=CC12CCN(CC1)C(C(O)c1ccnc3ccc(OC)cc13)C2 (stereo unspecified),GI50,[1],> 100000 nM
same,TGI,[1],> 100 µM
same,GI50,[52],79.8 µM
same,TGI,[52],> 100 µM
same,GI50,[2],> 100000 nM
same,TGI,[2],> 100 µM
same,GI50,[3],96.2 µM
same,TGI,[3],> 100000 nM
same,GI50,[53],> 100 µM
same,TGI,[53],> 100 µM
same,GI50,[4],> 100000 nM
same,TGI,[4],> 100 µM
same,GI50,[5],> 100000 nM
same,TGI,[5],> 100 µM
same,GI50,[6],> 100000 nM
same,TGI,[6],> 100 µM
same,GI50,[54],> 100 µM
same,TGI,[54],> 100 µM
same,GI50,[7],> 100000 nM
same,TGI,[7],> 100 µM
same,GI50,[8],> 100 µM
same,TGI,[8],> 100 µM
same,GI50,[9],> 100000 nM
same,TGI,[9],> 100 µM
same,GI50,[10],> 100 µM
same,TGI,[10],> 100 µM
same,GI50,[11],> 100000 nM
same,TGI,[11],> 100 µM
same,GI50,[12],> 100000 nM
same,TGI,[12],> 100000 nM
same,GI50,[13],39.2 µM
same,TGI,[13],> 100 µM
same,GI50,[14],39.7 µM
same,TGI,[14],> 100 µM
same,GI50,[15],> 100000 nM
same,TGI,[15],> 100 µM
same,GI50,[16],> 100 µM
same,TGI,[16],> 100 µM
same,GI50,[17],> 100 µM
same,TGI,[17],> 100 µM
same,GI50,[55],86.6 µM
same,TGI,[55],> 100 µM
same,GI50,[18],> 100 µM
same,TGI,[18],> 100 µM
same,GI50,[19],35.2 µM
same,TGI,[19],> 100 µM
same,GI50,[20],> 100 µM
same,TGI,[20],> 100 µM
same,GI50,[21],47.8 µM
same,TGI,[21],> 100000 nM
same,GI50,[56],> 100 µM
same,TGI,[56],> 100 µM
same,GI50,[22],61.9 µM
same,TGI,[22],> 100 µM
same,GI50,[23],> 100000 nM
same,TGI,[23],> 100 µM
same,GI50,[24],> 100 µM
same,TGI,[24],> 100 µM
same,GI50,[25],74.2 µM
same,TGI,[25],> 100 µM
same,GI50,[26],80 µM
same,TGI,[26],> 100 µM
same,GI50,[27],> 100000 nM
same,TGI,[27],> 100 µM
same,GI50,[28],> 100 µM
same,TGI,[28],> 100 µM
same,GI50,[29],> 100 µM
same,TGI,[29],> 100 µM
same,GI50,[30],> 100000 nM
same,TGI,[30],> 100 µM
same,GI50,[31],> 100000 nM
same,TGI,[31],> 100 µM
same,GI50,[32],> 100 µM
same,TGI,[32],> 100 µM
same,GI50,[33],> 100 µM
same,TGI,[33],> 100 µM
same,GI50,[34],> 100000 nM
same,TGI,[34],> 100 µM
same,GI50,[35],> 100 µM
same,TGI,[35],> 100 µM
same,GI50,[57],> 100 µM
same,TGI,[57],> 100 µM
same,GI50,[36],84.3 µM
same,TGI,[36],> 100 µM
same,GI50,[37],> 100 µM
same,TGI,[37],> 100 µM
same,GI50,[38],> 100000 nM
same,TGI,[38],> 100 µM
same,GI50,[39],> 100000 nM
same,TGI,[39],> 100 µM
same,GI50,[58],> 100 µM
same,TGI,[58],> 100 µM
same,GI50,[40],> 100 µM
same,TGI,[40],> 100 µM
same,GI50,[41],94.8 µM
same,TGI,[41],> 100 µM
same,GI50,[42],> 100000 nM
same,TGI,[42],> 100000 nM
same,GI50,[43],> 100000 nM
same,TGI,[43],> 100 µM
same,GI50,[44],> 100 µM
same,TGI,[44],> 100 µM
same,GI50,[45],> 100 µM
same,TGI,[45],> 100 µM
same,GI50,[46],15.4 µM
same,TGI,[46],> 100 µM
same,GI50,[47],95.3 µM
same,TGI,[47],> 100 µM
same,GI50,[48],60.5 µM
same,TGI,[48],> 100 µM
same,GI50,[49],> 100 µM
same,TGI,[49],> 100 µM
same,GI50,[50],> 100000 nM
same,TGI,[50],> 100000 nM
same,GI50,[51],87.1 µM
same,TGI,[51],> 100 µM
